{"source": "patent US20260027116A1", "about": "“Methods of Treating Chronic Graft-Versus-Host Disease Following Allogeneic Hematopoietic Stem Cell Transplantation” (Kadmon Corporation, LLC, priority 2022, published 2026)", "target": "T1, OATPIB1 (Homo sapiens, UniProt Q9Y6L6)", "T1 sequence (Q9Y6L6 1-691)": "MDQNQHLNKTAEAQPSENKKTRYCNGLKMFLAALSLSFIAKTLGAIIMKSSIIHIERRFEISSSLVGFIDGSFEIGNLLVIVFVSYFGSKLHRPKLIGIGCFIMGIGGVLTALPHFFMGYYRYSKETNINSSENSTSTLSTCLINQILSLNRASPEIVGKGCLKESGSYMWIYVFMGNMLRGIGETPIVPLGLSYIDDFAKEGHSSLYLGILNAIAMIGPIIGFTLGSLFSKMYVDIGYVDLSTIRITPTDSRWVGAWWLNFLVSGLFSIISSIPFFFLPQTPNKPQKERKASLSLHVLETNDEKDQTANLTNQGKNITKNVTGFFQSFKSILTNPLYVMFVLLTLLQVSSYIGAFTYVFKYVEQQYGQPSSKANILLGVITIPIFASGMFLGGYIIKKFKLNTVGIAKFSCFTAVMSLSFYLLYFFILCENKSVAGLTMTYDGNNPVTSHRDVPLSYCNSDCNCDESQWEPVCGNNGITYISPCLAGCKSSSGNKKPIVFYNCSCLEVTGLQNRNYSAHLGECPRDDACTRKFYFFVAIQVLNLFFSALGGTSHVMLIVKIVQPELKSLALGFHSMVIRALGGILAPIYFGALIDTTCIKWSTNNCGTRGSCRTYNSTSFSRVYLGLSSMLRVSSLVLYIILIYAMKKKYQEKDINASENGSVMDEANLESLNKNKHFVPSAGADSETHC", "assay": "transporter inhibition in vitro", "type": "in vitro ADME", "conditions": "at clinically relevant concentrations", "data": [{"smiles": "CC(C)NC(=O)COc1cccc(-c2nc(Nc3ccc4[nH]ncc4c3)c3ccccc3n2)c1", "note": "[Belumosudil, 2-{3-[4-(1H-indazol-5-ylamino)-2-quinazolinyl]phenoxy}-N-(propan-2-yl) acetamide]", "values": [{"measurement": "inhibition of OATPIB1", "value": "inhibits"}]}]}
